“Also recorded” adds a separate entry of the source. Where two headings read alike, the source gives them in different places.
Experiments:
L1210 leukemia cells = experiment: Growth inhibition in L1210 mouse leukemia cells; assay type: cell-based
Description: In an alternate embodiment of the invention, the analogous thymidine compounds were prepared (i.e., 3 where F═CH3). The thymidine phosphoramidate was activated by reduction of the nitrofuryl group with sodium dithionite in aqueous buffer/acetonitrile at 37° C., and the reaction was monitored by ^31P nmr. Within ten minutes the resonance for the phosphoramidate anion had disappeared and a new peak corresponding to thymidine-5′-phosphate appeared as the exclusive phosphorus-containing product by ^31P nmr. Nucleoside phosphoramidate 3 was then evaluated for its ability to inhibit proliferation of L1210 leukemia cells in vitro. Cells were exposed to drug for 2, 8, 24, and 48 hours; the results are summarized below:
Stock solutions of drugs were prepared in absolute ethanol, and serial dilutions of drug were prepared in ethanol. L1210 cells were suspended in Fisher's medium supplemented with 10% horse serum, 1% glutamine, and 1% antibiotic-antimycotic solution to give 10 mL volumes of cell suspension at a final density of 3-6×10^4 cells/mL. Appropriate volumes of the drug solution were transferred to the cell suspensions, and incubation was continued for 2, 8, 24, or 48 hours. The cells were spun down, resuspended in fresh drug-free medium and returned to the incubator. Final cell counts were determined 48 hours after the start of drug treatment. The data were analyzed by sigmoidal curve fit of cell count vs. Log (drug concentration) and the results expressed as the IC50 (the drug concentration that inhibits cell growth to 50% of control value).

[1] = tested on: luciferase expression in J77 cells transfected with NF-AT-Luciferase plasmid; experiment: Luciferase inhibition on transfected J77 cells; assay type: cell-based; conditions: read-out: IC50 luciferase inhibition
Description: J77 cells (2×10^7 cells in […] of FBS-free RPMI media) were transfected with […] of NF-AT-Luciferase plasmid. Cells were transferred to a flask with 10 mL of complete RPMI media and incubated for 24 hours. After this time cells were spun down, resuspended in 12 mL of complete RPMI media and divided into a 6-well well plate (2 mL/well). Drug stock solutions in DMSO were made and each well was treated with a different concentration and incubated for 2 hours. Each well was then treated with 10 mL of a mixture of 1.25 mg of PMA and 9 mg of Ionomycin in 115 mL of FBS-free RPMI, followed by the addition of 2 mg of Anti-CD3. Cells were incubated for 6 hours, spun down, washed with PBS, lysed for 15 min and centrifuged. Supernantant was collected and stored at −78° C. overnight. Luciferase activity was measured using a luminometer with a mixture of 50 mL of luciferase substrate and 10 ml of supernatant.

L1210 cells = experiment: Tritium assay in L1210 cells; assay type: cell-based; conditions: Mus musculus
Description: (§1) Stock solutions of drugs were prepared in absolute ethanol. L1210 cells were suspended in fisher's medium, LM and LM (TK-) cells were suspended in minimum essential medium to give a final density of 11.24×10^6 cells/mL. Aliquots ([…]) of the cell suspension were placed in ependorf tubes, followed by addition of 5 mL of drug solution and incubated at 37° C. for 2 hours. Tritium release reaction was started by the addition of […] of serum free media containing 1 mCi [5-^3H]dCyt in a 0.5 mM dCyt solution. Allowed reaction to incubate for 60 min in a shaking water bath at 37° C. Reaction was terminated by transferring 100 mL of the reaction mixture to ependorf tubes containing 100 mL of a 20% mixture of activated charcoal suspension in 4% aqueous perchloric acid. Tubes were vigorously vortexed, then centrifuged in a microfuge. Radioactivity of […] of the supernatant was measured using a scintillation spectrometer. The data were analyzed by sigmoidal curve fit of CMP vs. Log (drug concentration) and the results expressed as the IC50 (the drug concentration that inhibits cell growth to 50% of control value).

LM cells = experiment: Tritium assay in LM cells; assay type: cell-based; conditions: read-out: IC50 tritium assay
Description: as §1

LM(TK-) cells = experiment: Tritium assay in LM(TK-) cells; assay type: cell-based; conditions: L-M(TK-), read-out: IC50 tritium assay
Description: as §1

[2] = Chemical activation by sodium dithionite reduction monitored by 31P nmr; assay type: physicochemical; conditions: sodium dithionite in aqueous buffer/acetonitrile at 37° C.
pp60src SH2 domain = pp60src SH2 domain (Homo sapiens, UniProt P12931); experiment: Binding to pp60src SH2 domain; conditions: read-out: binding affinity
Chain of pp60src SH2 domain (P12931 151-248 limits assumed): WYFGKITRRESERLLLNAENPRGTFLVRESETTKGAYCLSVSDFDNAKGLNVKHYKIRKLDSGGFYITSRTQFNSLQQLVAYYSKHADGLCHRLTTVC
Excerpt: An alternate embodiment of the invention is illustrated in scheme 3: [drawing 3] This reaction is directed toward the synthesis of phosphoramidate 11A and involved the preparation of the nitrofuryl phosphoramidate of p-hydroxybenzoic acid 9A and coupling of this product with the benzyl amine 10A, prepared from 5-acetylsalicylamide. Briefly, to synthesize the benzoic acid derivative 9A, p-Hydroxybenzoic acid was converted to its allyl ester 6A by reaction of the potassium salt with allylbromide. The allyl ester was reacted with POCl3 and the intermediate phosphoryl dichloride was treated with methyl chlorobutylamine in the presence of triethylamine to give phosphoramidic chloride 7A. Reaction of 7A with the lithium salt of 5-nitro-2-hydroxymethylfuran afforded the phosphoramidate 8A. Deprotection of the allyl ester was accomplished by reaction with Pd(Ph3P)4/sodium p-toluenesulfinate to give the benzoic acid phosphoramidate 9A. Reaction of 9A with isobutyl chloroformate in the presence of triethylamine, followed by addition of benzylamine 10A afforded the desired peptidomimetic prodrug 11A. In order to confirm that the activation chemistry of 11A to 12A would proceed as expected, 11A was reduced with sodium dithionite in ethanol/aqueous buffer and the reaction monitored by ^31P nmr. […]

[3] = Mus musculus, L1210, 2 h, read-out: L1210 IC50, drug exposure 2 hr, comparison of compound 5 with compound 3
[4] = Mus musculus, L1210, 8 h, read-out: L1210 IC50, drug exposure 8 hr, comparison of compound 5 with compound 3
[5] = Mus musculus, L1210, 24 h, read-out: L1210 IC50, drug exposure 24 hr, comparison of compound 5 with compound 3
[6] = Mus musculus, L1210, 48 h, drug exposure 48 h, final cell counts 48 hours after start of drug treatment
[7] = Mus musculus, L1210, 48 h, read-out: L1210 IC50, drug exposure 48 hr, comparison of compound 5 with compound 3
[8] = Mus musculus, L1210, drug exposure 2 h, final cell counts 48 hours after start of drug treatment
[9] = Mus musculus, L1210, drug exposure 8 h, final cell counts 48 hours after start of drug treatment
[10] = Mus musculus, L1210, drug exposure 24 h, final cell counts 48 hours after start of drug treatment

In the case of `CN(CCCCCl)P(=O)(OCC1=CC(=O)c2ccccc2C1=O)OC[C@H]1O[C@@H](n2cc(F)c(=O)[nH]c2=O)CC1O` (some centres unmarked) [Compound 5, 5-Fluoro-2′-deoxyuridyl 2-(1,4-napthoquinonyl)methyl N-methyl-N-(4-chlorobutyl)phosphoramidate], the “inhibition of L1210 cell proliferation, in words” value (L1210 leukemia cells) is reported as “highly potent inhibitors”, the “potency relative to compound 3” value (L1210 leukemia cells; L1210 cell proliferation) is reported as “approximately 3 fold” and the IC50 (L1210 leukemia cells; [3]) is reported as 44 nM. The IC50 (L1210 leukemia cells; [4]) was 16 nM, the IC50 (L1210 leukemia cells; [5]) was 3.1 nM and the IC50 (L1210 leukemia cells; [6]) was 0.63 nM. The IC50 (L1210 leukemia cells; [7]) was 0.63 nM, the IC50 (L1210 leukemia cells; [8]) was 44 nM and the IC50 (L1210 leukemia cells; [9]) was 16 nM. For the same compound, the IC50 (L1210 leukemia cells; [10]) was 3.1 nM.
`CC(NC(=O)Cc1ccc(OP(=O)(OCc2ccc([N+](=O)[O-])o2)N(C)CCCCCl)cc1)c1ccc(OCC2CCCCC2)c(C(N)=O)c1` (centres unmarked) [Compound 40] gave an IC50 [1] of 3400 nM.
With `O=c1[nH]c(=O)n([C@H]2C[C@H](O)[C@@H](CO)O2)cc1F` [FUdR, 5-Fluoro-2′-deoxyuridine, reference compound] the IC50 (L1210 cells; L1210, drug 2 hours at 37° C., then [5-3H]dCyt 60 min, read-out: IC50 tritium assay) was 8 nM, the IC50 (LM cells; LM, drug 2 hours at 37° C., then [5-3H]dCyt 60 min) was 59 nM and the IC50 (LM(TK-) cells; LM(TK-), drug 2 hours at 37° C., then [5-3H]dCyt 60 min) was 3670 nM. The IC50 (L1210 leukemia cells; Mus musculus, L1210, 48 h, drug exposure 48 h, final cell counts 48 hours after start of drug treatment, read-out: IC50) was 0.64 nM, the IC50 (L1210 leukemia cells; Mus musculus, L1210, drug exposure 2 h, final cell counts 48 hours after start of drug treatment, read-out: IC50) was 45 nM and the IC50 (L1210 leukemia cells; Mus musculus, L1210, drug exposure 8 h, final cell counts 48 hours after start of drug treatment, read-out: IC50) was 23 nM. For the same compound, the IC50 (L1210 leukemia cells; Mus musculus, L1210, drug exposure 24 h, final cell counts 48 hours after start of drug treatment, read-out: IC50) was 4.1 nM.
`O=c1[nH]cc(F)c(=O)[nH]1` [Compound 5-FU, reference compound] showed an IC50 (L1210 leukemia cells; drug exposure 2 h, final cell counts 48 hours after start of drug treatment, read-out: IC50) of 2500 nM, an IC50 (L1210 leukemia cells; drug exposure 2 hr, comparison of compound 5 with compound 3, read-out: L1210 IC50) of 2500 nM and an IC50 (L1210 leukemia cells; drug exposure 2 hr, read-out: L1210 IC50) of 2740 nM. It also gave an IC50 (L1210 leukemia cells; drug exposure 8 h, final cell counts 48 hours after start of drug treatment, read-out: IC50) of 1010 nM, an IC50 (L1210 leukemia cells; drug exposure 8 hr, comparison of compound 5 with compound 3, read-out: L1210 IC50) of 1010 nM and an IC50 (L1210 leukemia cells; drug exposure 8 hr, read-out: L1210 IC50) of 1390 nM. It also gave an IC50 (L1210 leukemia cells; drug exposure 24 h, final cell counts 48 hours after start of drug treatment, read-out: IC50) of 360 nM, an IC50 (L1210 leukemia cells; drug exposure 24 hr, comparison of compound 5 with compound 3, read-out: L1210 IC50) of 360 nM and an IC50 (L1210 leukemia cells; drug exposure 24 hr, read-out: L1210 IC50) of 495 nM. The IC50 (L1210 leukemia cells; drug exposure 48 h, final cell counts 48 hours after start of drug treatment, read-out: IC50) was 200 nM, the IC50 (L1210 leukemia cells; drug exposure 48 hr, comparison of compound 5 with compound 3, read-out: L1210 IC50) was 200 nM and the IC50 (L1210 leukemia cells; drug exposure 48 hr, read-out: L1210 IC50) was 265 nM.
Compound `CC(NC(=O)c1ccc(NP(=O)(OCc2ccc([N+](=O)[O-])o2)N(C)CCCCCl)cc1)c1ccc(OCC2CCCCC2)c(C(N)=O)c1` (centres unmarked) [Compound 42] has an IC50 ([1]; transfected J77 cells, drug 2 hours, then PMA/Ionomycin/Anti-CD3 for 6 hours) of 15000 nM.
For `CN(CCCCCl)P(=O)(OCc1ccc([N+](=O)[O-])o1)OC[C@H]1O[C@@H](n2cc(F)c(=O)[nH]c2=O)CC1O` (some centres unmarked) [Compound 3, 5-Fluoro-2′-deoxyuridyl 5-nitrofurfuryl N-methyl-N-(4-chlorobutyl)phosphoramidate], the IC50 (L1210 cells; L1210, read-out: IC50 tritium assay) was 46 nM, the IC50 (LM cells) was 711 nM and the IC50 (LM(TK-) cells) was 1280 nM. The “inhibition of L1210 cell proliferation, in words” value (L1210 leukemia cells) was “significantly more potent than the analogous bromoethyl compound; also recorded: highly potent inhibitors”, the IC50 (L1210 leukemia cells; Mus musculus, L1210, 2 h, read-out: L1210 IC50, drug exposure 2 hr) was 112 nM and the IC50 (L1210 leukemia cells; [3]) was 116 nM. The IC50 (L1210 leukemia cells; Mus musculus, L1210, 8 h, read-out: L1210 IC50, drug exposure 8 hr) was 40 nM, the IC50 (L1210 leukemia cells; [4]) was 47 nM and the IC50 (L1210 leukemia cells; Mus musculus, L1210, 24 h, read-out: L1210 IC50, drug exposure 24 hr) was 6 nM. It also gave an IC50 (L1210 leukemia cells; [5]) of 7.2 nM, an IC50 (L1210 leukemia cells; [6]) of 2.3 nM and an IC50 (L1210 leukemia cells; Mus musculus, L1210, 48 h, read-out: L1210 IC50, drug exposure 48 hr) of 2 nM. It also gave an IC50 (L1210 leukemia cells; [7]) of 2.3 nM, an IC50 (L1210 leukemia cells; [8]) of 116 nM and an IC50 (L1210 leukemia cells; [9]) of 47 nM. It also gave an IC50 (L1210 leukemia cells; [10]) of 7.2 nM.
`CC(NC(=O)c1ccc(OP(=O)(OCC2=CC(=O)c3ccccc3C2=O)N(C)CCCCCl)cc1)c1ccc(OCC2CCCCC2)c(C(N)=O)c1` (centres unmarked) [Compound 37] gave an IC50 [1] of 4200 nM.
Compound `CC(=O)NC(Cc1ccc(OP(=O)(OCc2ccc([N+](=O)[O-])o2)N(C)CCCCCl)cc1)C(=O)NC(C)c1ccc(OCC2CCCCC2)c(C(N)=O)c1` (centres unmarked) [Compound 38] has an IC50 [1] of 5600 nM.
In the case of `Cc1cn([C@H]2C[C@H](O)[C@@H](COP(N)(=O)O)O2)c(=O)[nH]c1=O` [thymidine phosphoramidate], the “time until the phosphoramidate anion resonance had disappeared (thymidine-5′-phosphate exclusive product)” value [2] is reported as “ten”.
`CC(NC(=O)c1ccc(OP(=O)(OCc2ccc([N+](=O)[O-])o2)N(C)CCCCCl)cc1)c1ccc(OCC2CCCCC2)c(C(N)=O)c1` (centres unmarked) [Compound 35] gave an IC50 [1] of 34100 nM.
Compound `CC(NC(=O)c1ccc(OP(=O)(O)O)cc1)c1ccc(OCC2CCCCC2)c(C(N)=O)c1` (centres unmarked) [Compound 12A] has a Kd (pp60src SH2 domain) of 5600 nM.
For `COC1=CC(=O)c2c(cc(COP(=O)(OCC3OC(n4cc(F)c(=O)[nH]c4=O)CC3O)N(C)CCCCCl)n2C)C1=O` (centres unmarked) [Compound 6, 5-Fluoro-2′-deoxyuridyl 2-(5-methoxy-N-methylindoloquinone)methyl N-methyl-N-(4-chlorobutyl)phosphoramidate], the IC50 (L1210 leukemia cells; [6]) was 1.6 nM, the IC50 (L1210 leukemia cells; [8]) was 34 nM and the IC50 (L1210 leukemia cells; [9]) was 48 nM. It also gave an IC50 (L1210 leukemia cells; [10]) of 4.8 nM.

From patent US6903081B2, “Phosphoramidates and methods therefor” (Purdue Research Foundation, priority 2000, dated 2005)
